Format in all cases: biochemical
One experiment deals with JNK1 (Homo sapiens, UniProt P45983). Nature of the experiment: 33PanQinase enzyme assay, JNK1. Set-up: purchased ProQinase GmbH, Freiburg, Germany (33PanQinase Assay Service). The settings on record: ratio IC50(JNK1)/IC50(MKK4). A digest of the protocol: (§1)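 Off-target selectivity is the ratio IC50(off-target)/IC50(MKK4), with IC50 values from least-squares fitting and single-point data as % residual activity. Reactions of enzyme/substrate mix, ATP and compound ran 60 min at 30° C before H3PO4 stop; ^33P incorporation read on a scintillation counter.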
JNK1, sequence (P45983 whole entry): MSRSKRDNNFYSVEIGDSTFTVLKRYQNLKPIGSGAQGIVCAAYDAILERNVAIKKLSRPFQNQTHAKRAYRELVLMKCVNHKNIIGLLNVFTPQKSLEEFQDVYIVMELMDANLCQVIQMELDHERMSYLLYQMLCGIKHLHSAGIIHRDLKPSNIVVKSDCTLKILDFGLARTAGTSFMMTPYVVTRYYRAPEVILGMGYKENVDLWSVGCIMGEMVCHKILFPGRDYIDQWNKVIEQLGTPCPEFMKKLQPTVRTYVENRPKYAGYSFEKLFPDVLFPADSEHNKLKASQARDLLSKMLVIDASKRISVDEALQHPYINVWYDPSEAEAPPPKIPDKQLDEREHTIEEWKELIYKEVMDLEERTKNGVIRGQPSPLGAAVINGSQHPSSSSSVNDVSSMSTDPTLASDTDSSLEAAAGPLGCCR

The next experiment addresses T1, BRaf (Homo sapiens, UniProt P15056).
T1 construct: purchased ProQinase GmbH, Freiburg, Germany (33PanQinase Assay Service)
Nature of the experiment: 33PanQinase enzyme assay, BRaf. To be noted: ratio IC50(BRaf)/IC50(MKK4). A digest of the protocol: as §1

The target of another experiment is T2, MKK4 (Homo sapiens, UniProt P45985).
T2 construct: purchased ProQinase GmbH, Freiburg, Germany (33PanQinase Assay Service)
T2 sequence (P45985 1-399): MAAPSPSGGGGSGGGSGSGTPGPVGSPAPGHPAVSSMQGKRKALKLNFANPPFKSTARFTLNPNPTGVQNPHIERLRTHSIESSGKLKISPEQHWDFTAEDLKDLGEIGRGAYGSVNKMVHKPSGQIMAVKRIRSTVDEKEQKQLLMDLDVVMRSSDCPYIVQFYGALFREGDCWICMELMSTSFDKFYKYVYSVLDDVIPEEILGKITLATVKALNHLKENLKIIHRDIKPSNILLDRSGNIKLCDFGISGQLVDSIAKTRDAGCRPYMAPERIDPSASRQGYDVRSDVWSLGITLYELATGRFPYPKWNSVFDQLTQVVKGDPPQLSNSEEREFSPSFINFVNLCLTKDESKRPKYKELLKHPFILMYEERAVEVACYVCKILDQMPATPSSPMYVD
Nature of the experiment: 33PanQinase enzyme assay, MKK4. To be noted: assay 'IC50'; read-out: Potency MKK4 (IC50). A digest of the protocol: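 Inhibition measured as 33Pi transfer to substrate after a 60-min, 30 °C reaction, acid-stopped and scintillation-counted.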

The next experiment addresses T3, MKK7 (Homo sapiens, UniProt O14733).
T3 sequence (O14733 1-419): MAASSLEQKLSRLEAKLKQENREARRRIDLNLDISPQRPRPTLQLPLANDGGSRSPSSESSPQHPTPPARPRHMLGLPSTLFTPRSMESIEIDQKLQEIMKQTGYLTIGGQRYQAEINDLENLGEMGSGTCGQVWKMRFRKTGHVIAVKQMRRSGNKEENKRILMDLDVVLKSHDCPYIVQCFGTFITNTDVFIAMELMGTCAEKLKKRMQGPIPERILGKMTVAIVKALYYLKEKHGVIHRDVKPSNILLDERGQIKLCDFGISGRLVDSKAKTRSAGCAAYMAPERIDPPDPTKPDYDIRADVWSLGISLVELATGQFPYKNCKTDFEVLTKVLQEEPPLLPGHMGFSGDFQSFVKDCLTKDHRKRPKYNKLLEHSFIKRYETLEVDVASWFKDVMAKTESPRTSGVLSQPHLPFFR
Nature of the experiment: 33PanQinase enzyme assay, MKK7. On the set-up: purchased ProQinase GmbH, Freiburg, Germany (33PanQinase Assay Service). The settings on record: ratio IC50(MKK7)/IC50(MKK4). A digest of the protocol:
as §1

Each structure is given as a SMILES string.

T1 sequence (P15056 whole entry, species assumed): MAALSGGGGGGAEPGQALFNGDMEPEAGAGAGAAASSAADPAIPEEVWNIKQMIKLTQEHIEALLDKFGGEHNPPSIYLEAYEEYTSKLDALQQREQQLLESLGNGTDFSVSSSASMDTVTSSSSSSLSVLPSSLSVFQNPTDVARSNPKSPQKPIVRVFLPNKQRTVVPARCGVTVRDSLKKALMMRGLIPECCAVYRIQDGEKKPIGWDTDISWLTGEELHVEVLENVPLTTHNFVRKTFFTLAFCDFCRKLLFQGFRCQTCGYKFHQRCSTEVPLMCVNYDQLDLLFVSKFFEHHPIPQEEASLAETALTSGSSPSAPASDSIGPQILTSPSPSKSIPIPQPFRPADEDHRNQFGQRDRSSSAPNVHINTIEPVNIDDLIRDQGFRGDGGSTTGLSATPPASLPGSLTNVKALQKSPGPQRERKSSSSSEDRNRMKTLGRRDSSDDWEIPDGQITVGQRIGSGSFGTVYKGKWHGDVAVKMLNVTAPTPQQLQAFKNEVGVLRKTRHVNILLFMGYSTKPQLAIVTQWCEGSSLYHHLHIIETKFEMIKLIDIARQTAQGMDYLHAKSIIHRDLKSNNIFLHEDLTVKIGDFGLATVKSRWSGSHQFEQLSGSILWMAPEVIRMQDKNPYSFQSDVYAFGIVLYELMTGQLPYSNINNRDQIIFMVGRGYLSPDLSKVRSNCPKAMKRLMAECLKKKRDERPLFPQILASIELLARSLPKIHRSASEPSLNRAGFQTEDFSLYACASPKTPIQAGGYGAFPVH

For the molecule `CCCS(=O)(=O)Nc1c(F)ccc(C(=O)c2c[nH]c3ncc(-c4ccc(C5CC5)nc4C)cc23)c1F` [Example 170, N-(3-(5-(6-cyclopropyl-2-methylpyridin-3-yl)-1H-pyrrolo[2,3-b]pyridine-3-carbonyl)-2,6-difluorophenyl)propane-1-sulfonamide], the “Selectivity JNK1, IC50(off-target)/IC50(MKK4)” value (“Selectivity JNK1” below) on JNK1 is given as “+++ (IC50(off-target)/IC50(MKK4) > 100)”. In addition, at BRaf, the “Selectivity Braf, IC50(off-target)/IC50(MKK4)” value (“Selectivity Braf” below) is recorded as “+++ (IC50(off-target)/IC50(MKK4) > 100)”. Moreover, the IC50 at MKK4 is below 0.1 µM. In addition, the “Selectivity IVIKK7, IC50(off-target)/IC50(MKK4)” value (“Selectivity IVIKK7” below) at MKK7 is reported as “+++ (IC50(off-target)/IC50(MKK4) > 100)”.
Turning to `CCCS(=O)(=O)Nc1c(F)ccc(C(=O)c2c[nH]c3ncc(-c4cnc(OC)nc4OC)cc23)c1F` [Example 236, N-(3-(5-(2,4-dimethoxypyrimidin-5-yl)-1H-pyrrolo[2,3-b]pyridine-3-carbonyl)-2,6-difluorophenyl)propane-1-sulfonamide], the “Selectivity JNK1” value on JNK1 is “+++ (IC50(off-target)/IC50(MKK4) > 100)”. Also, the “Selectivity Braf” value at BRaf is “+++ (IC50(off-target)/IC50(MKK4) > 100)”. The IC50 at MKK4 is below 0.1 µM. Also, the “Selectivity IVIKK7” value at MKK7 is “+++ (IC50(off-target)/IC50(MKK4) > 100)”.
With `CCCS(=O)(=O)Nc1c(F)ccc(C(=O)c2c[nH]c3ncc(-c4cnc(OCCCN(C)C)nc4)cc23)c1F` [Example 200, N-(3-(5-(2-(3-(dimethylamino)propoxy)pyrimidin-5-yl)-1H-pyrrolo[2,3-b]pyridine-3-carbonyl)-2,6-difluorophenyl)propane-1-sulfonamide], the “Selectivity JNK1” value at JNK1 is “+ (10 ≥ IC50(off-target)/IC50(MKK4) > 3)”. Also, the “Selectivity Braf” value on BRaf is recorded as “+ (10 ≥ IC50(off-target)/IC50(MKK4) > 3)”. The IC50 at MKK4 lay in the range of 1 to 10 µM. Also, the “Selectivity IVIKK7” value at MKK7 is recorded as “+++ (IC50(off-target)/IC50(MKK4) > 100)”.
Take `CCCS(=O)(=O)Nc1ccc(F)c(C(=O)c2c[nH]c3ncc(N4CCC(=O)CC4)cc23)c1F` [Example 135, N-(2,4-difluoro-3-(5-(4-oxopiperidin-1-yl)-1H-pyrrolo[2,3-b]pyridine-3-carbonyl)phenyl)propane-1-sulfonamide]: at JNK1, the “Selectivity JNK1” value is “◯ (3 ≥ IC50(off-target)/IC50(MKK4))”. Moreover, the “Selectivity Braf” value on BRaf was “◯ (3 ≥ IC50(off-target)/IC50(MKK4))”. The half-inhibitory concentration (IC50) on MKK4 lay within 1 to 10 µM. Also, the “Selectivity IVIKK7” value at MKK7 was “++ (100 ≥ IC50(off-target)/IC50(MKK4) > 10)”.
As for `C#Cc1ncc(-c2cnc3[nH]cc(C(=O)c4ccc(F)c(NS(=O)(=O)CCC)c4F)c3c2)cn1` [Example 208, N-(3-(5-(2-ethynylpyrimidin-5-yl)-1H-pyrrolo[2,3-b]pyridine-3-carbonyl)-2,6-difluorophenyl)propane-1-sulfonamide], the “Selectivity JNK1” value on JNK1 is “+++ (IC50(off-target)/IC50(MKK4) > 100)”. Further, on BRaf, the “Selectivity Braf” value was “++ (100 ≥ IC50(off-target)/IC50(MKK4) > 10)”. At MKK4, the IC50 is below 0.1 µM. Also, at MKK7, the “Selectivity IVIKK7” value is listed as “++ (100 ≥ IC50(off-target)/IC50(MKK4) > 10)”.
As for `CS(=O)(=O)Nc1c(F)ccc(C(=O)c2c[nH]c3ncc(-c4cccc5ccccc45)cc23)c1F` [Example 214, N-(2,6-difluoro-3-(5-(naphthalen-1-yl)-1H-pyrrolo[2,3-b]pyridine-3-carbonyl)phenyl)methanesulfonamide], the “Selectivity JNK1” value on JNK1 is on record as “++ (100 ≥ IC50(off-target)/IC50(MKK4) > 10)”. Besides, the “Selectivity Braf” value on BRaf is on record as “+++ (IC50(off-target)/IC50(MKK4) > 100)”. Also, the IC50 on MKK4 is 0.1 to 1 µM. In addition, the “Selectivity IVIKK7” value on MKK7 is “+++ (IC50(off-target)/IC50(MKK4) > 100)”.
For the molecule `CCCS(=O)(=O)Nc1ccc(F)c(C(=O)c2c[nH]c3ncc(-c4ccc(C(C)(C)C)cc4)cc23)c1F` [Example 113, N-(3-(5-(4-(tert-butyl)phenyl)-1H-pyrrolo[2,3-b]pyridine-3-carbonyl)-2,4-difluorophenyl)propane-1-sulfonamide], on JNK1, the “Selectivity JNK1” value is listed as “+ (10 ≥ IC50(off-target)/IC50(MKK4) > 3)”. Moreover, the “Selectivity Braf” value on BRaf is “◯ (3 ≥ IC50(off-target)/IC50(MKK4))”. Further, on MKK4, the IC50 was in the range of 0.1 to 1 µM. For the same molecule, the “Selectivity IVIKK7” value on MKK7 is given as “+++ (IC50(off-target)/IC50(MKK4) > 100)”.
On to `CCCS(=O)(=O)Nc1ccc(F)c(C(=O)c2c[nH]c3ncc(-c4ccc(N(C)C)cc4)cc23)c1F` [Example 98, N-(3-(5-(4-(dimethylamino)phenyl)-1H-pyrrolo[2,3-b]pyridine-3-carbonyl)-2,4-difluorophenyl)propane-1-sulfonamide], for which, on JNK1, the “Selectivity JNK1” value is listed as “+ (10 ≥ IC50(off-target)/IC50(MKK4) > 3)”. The “Selectivity Braf” value on BRaf is on record as “◯ (3 ≥ IC50(off-target)/IC50(MKK4))”. The IC50 on MKK4 was 1 to 10 µM. In addition, the “Selectivity IVIKK7” value at MKK7 is recorded as “++ (100 ≥ IC50(off-target)/IC50(MKK4) > 10)”.
Turning to `CCCS(=O)(=O)Nc1ccc(F)c(C(=O)c2c[nH]c3ncc(-c4cnccn4)cc23)c1F` [Example 89, N-(2,4-difluoro-3-(5-(pyrazin-2-yl)-1H-pyrrolo[2,3-b]pyridine-3-carbonyl)phenyl)propane-1-sulfonamide], the “Selectivity JNK1” value on JNK1 is “◯ (3 ≥ IC50(off-target)/IC50(MKK4))”. In addition, the “Selectivity Braf” value on BRaf is given as “◯ (3 ≥ IC50(off-target)/IC50(MKK4))”. The IC50 at MKK4 lay within 1 to 10 µM. For the same molecule, the “Selectivity IVIKK7” value on MKK7 is “++ (100 ≥ IC50(off-target)/IC50(MKK4) > 10)”.
Take `CCCS(=O)(=O)Nc1ccc(F)c(C(=O)c2c[nH]c3ncc(N4CCC(O)CC4)cc23)c1F` [Example 136, N-(2,4-difluoro-3-(5-(4-hydroxypiperidin-1-yl)-1H-pyrrolo[2,3-b]pyridine-3-carbonyl)phenyl)propane-1-sulfonamide]: the “Selectivity JNK1” value on JNK1 was “◯ (3 ≥ IC50(off-target)/IC50(MKK4))”. For the same molecule, at BRaf, the “Selectivity Braf” value was “◯ (3 ≥ IC50(off-target)/IC50(MKK4))”. The 50% inhibitory concentration (IC50) at MKK4 was in the range of 1 to 10 µM. Moreover, at MKK7, the “Selectivity IVIKK7” value is on record as “++ (100 ≥ IC50(off-target)/IC50(MKK4) > 10)”.
With `CCCS(=O)(=O)Nc1c(F)ccc(C(=O)c2c[nH]c3ncc(-c4ccc(S(C)(=N)=O)nc4)cc23)c1F` (stereo not drawn) [Example 164, N-(2,6-difluoro-3-(5-(6-(S-methylsulfonimidoyl)pyridin-3-yl)-1H-pyrrolo[2,3-b]pyridine-3-carbonyl)phenyl)propane-1-sulfonamide], the “Selectivity JNK1” value on JNK1 is given as “++ (100 ≥ IC50(off-target)/IC50(MKK4) > 10)”. The “Selectivity Braf” value on BRaf is recorded as “++ (100 ≥ IC50(off-target)/IC50(MKK4) > 10)”. The IC50 on MKK4 is below 0.1 µM. Further, the “Selectivity IVIKK7” value on MKK7 is reported as “+++ (IC50(off-target)/IC50(MKK4) > 100)”.
As for `CCCCS(=O)(=O)Nc1c(F)ccc(C(=O)c2c[nH]c3ncc(-c4ccc(OC)cc4Cl)cc23)c1F` [Example 226, N-(3-(5-(2-chloro-4-methoxyphenyl)-1H-pyrrolo[2,3-b]pyridine-3-carbonyl)-2,6-difluorophenyl)butane-1-sulfonamide], the “Selectivity JNK1” value at JNK1 was “++ (100 ≥ IC50(off-target)/IC50(MKK4) > 10)”. The “Selectivity Braf” value at BRaf was “+++ (IC50(off-target)/IC50(MKK4) > 100)”. Also, the IC50 at MKK4 was below 0.1 µM. Further, on MKK7, the “Selectivity IVIKK7” value is “+++ (IC50(off-target)/IC50(MKK4) > 100)”.

The values above are taken from patent publication US11912701B2, “Protein kinase inhibitors for promoting liver regeneration or reducing or preventing hepatocyte death” (HEPAREGENIX GMBH, priority 2018, dated 2024).
